Test results reported in patent US20090165150A1, “DIRECTED COMPLEMENTATION WITH REMOVABLE GENE OF INTEREST” (priority 2007, published 2009).

Key:
BHc tumors = assay: Xenograft of archived BHc tumor in NCR nude mice maintained on doxycycline; type: in vivo, mouse; conditions: 5 mice bearing BHc tumors, Tamoxifen IP for 8 consecutive days
Method: (§1) Tamoxifen treatment: To activate CreER^T2 and induce Cre mediated recombination (i.e., excision) between loxP sites, animals were treated with 0.1 ml tamoxifen (10 mg/ml in corn oil) through intraperitoneal (IP) injection for […].
(§2) About 0.1 million DC tumor cells were injected subcutaneously into 10 NCR nude mice on the right flank. These mice were maintained off doxycycline. Similarly 10 NCR nude mice were inoculated with archived BHc tumor and maintained on doxycycline. These mice were divided into 4 groups.
The second group contained of 5 mice bearing BHc tumors. They were treated with Tamoxifen for 8 consecutive days.

DC tumors = assay: Xenograft of DC tumor cells (pL-Her2^YVMA complemented) in NCR nude mice maintained off doxycycline; type: in vivo, mouse; conditions: 5 mice bearing DC tumors, Tamoxifen IP for 8 consecutive days, observed up to a month, untreated group had tumors within 10 days
Method: Minced DC tumor was thawed at 37° C. and cells were dissociated by passing through cell strainers (100 μm filters, BD Falcon Cat. No. 352360). The cells were collected and centrifuged at 1000 rpm for 5 minutes, washed twice with PBS and counted using hemocytometer and resuspended in one part PBS (Gibco Cat. No. 24020-117) to one part Matrigel (BD Cat. No. 3542334) for injections.
as §1, §2
The fourth group contained of 5 mice bearing DC tumors. They were treated with Tamoxifen for 8 consecutive days.

CC/C(=C(\c1ccccc1)c1ccc(OCCN(C)C)cc1)c1ccccc1 [Tamoxifen, tamoxifen]
tumor growth compared with untreated group (BHc tumors): grew slower than group 1
time until tumors were observed (BHc tumors; all 5 mice, untreated group within 10 days): ≤ 12 days
tumor formation (DC tumors): Tumors were never observed
